# Measured values: patent US9441208B2, “Methods and compositions for producing vitamin K dependent proteins” (The University of North Carolina at Chapel Hill, priority 2003, dated 2016)
# Columns and labels:
# VKOR [1] = molecular target: T1, VKOR (Homo sapiens, UniProt Q9BQB6); experiment: Warfarin sensitivity of VKOR (mGC11276) expressed in Sf9 insect cells; type: biochemical
# T1 construct: from tissue; host or cells: patients on warfarin (in vivo); genomic DNA from whole blood
# Protocol: FIG. 4. VKOR activity was detected when mGC_11276 was expressed in Sf9 insect cells. ˜1×10^6 cells were used in this assay. […] Blank Sf9 cells served as a negative control and A549 cells as a reference.
# siRNA transfected A549 cells were trypsinized and washed twice with cold PBS. 1.5×10^7 cells were taken for each VKOR assay. 200 μL buffer D (250 mM Na2HPO4—NaH2PO4, 500 mM KCI, 20% glycerol and 0.75% CHAPS, pH 7.4) was added to the cell pellet, followed by sonication of the cell lysate. For assays of solubilized microsomes, microsomes were prepared from 2×10^9 cells as described (Lin et al. (2002) “The putative vitamin K-dependent gamma-glutamyl carboxylase internal propeptide appears to be the propeptide binding site” J Biol Chem 277:28584-91); 10 to 50 μL of solubilized microsomes were used for each assay. Vitamin K epoxide was added to the concentration indicated in the figure legends and DTT was added to 4 mM to initiate the reaction. […] 500 μL hexane was added and the mixture was vortexed vigorously for 1 minute to extract the vitamin K and KO. After 5 minutes centrifugation, the upper organic layer was transferred to a 5-mL brown vial and dried with N2. 150 μL HPLC buffer, acetonitrile:isopropanol:water (100:7:2), was added to dissolve the vitamin K and KO and the sample was analyzed by HPLC on an A C-18 column (Vydac, cat#218TP54). […]
# VKOR [2] = molecular target: T1, VKOR; experiment: Correlation of VKOR gene SNPs with warfarin maintenance dose in patients; type: in vivo
# From the text: The most prevalent isoform of the VKOR gene is about 4 kb long, has three exons and encodes an enzyme of 163 amino acids with a mass of 18.4 kDa.
# Subjects were obtained from the UNC Coagulation Clinic in the Ambulatory Care Center. Informed consent was obtained by a trained genetic counselor. Subjects not fluent in English were excluded because of the lack of translators and the requirement for consent.
# Genomic DNAs were extracted from the whole blood of subjects using QIAamp DNA Blood Mini Kit (QIAGEN cat#51104). The DNA concentration was adjusted to 10 ng/μL.
# Approximately 10 ng of DNA was used for polymerase chain reaction (PCR) assays. The primers used to amplify the VKOR gene were: Exon 1-5′ […] (SEQ ID NO:29) and Exon 1-3′ […] (SEQ ID NO:30) for the 5′-UTR and Exon 1 region; Exon 2-5′ […] (SEQ ID NO:31) and Exon 2-3′ […] (SEQ ID NO:32) for the Exon 2 region; and Exon 3-5′ […] (SEQ ID NO:33) and Exon 3-3′ […] (SEQ ID NO:34) for the Exon3 and 3′-UTR region. Automated high throughput capillary electrophoresis DNA sequencing was used for detecting SNPs in the VKOR gene.
# The assay reagents for SNP genotyping were from the Assay-by-Design™ service (Applied Biosystems, cat#4332072). The primers and probes (FAM™ and VIC™ dye-labeled) were designed using Primer Express software and were synthesized in an Applied Biosystems synthesizer. The primer pairs for each SNP are located at the upstream/downstream position of the SNP site and can generate less than 100 bp length of a DNA fragment in the PCR reaction. The FAM™ and VIC™ dye-labeled probes were designed to cover the SNP sites with a length of 15-16 nt.
# The 2× TaqMan™ Universal PCR Master Mix, No AmpErase UNG (Applied Biosystems, cat#4324018) was used in the PCR reactions. Forty cycles of real-time PCR were performed in an Opticon II (MJ Research) machine. There was a 10 minute 95° C. preheat followed by 92° C. for 15 sec, 60° C. for 1 min. and then a plate reading. The results were read according to the signal value of FAM and VIC dye.
# The difference of average dose between different genotypes was compared by analysis of variance (ANOVA) using SAS version 8.0 (SAS, Inc., Cary, N.C.). A two-sided p value less than 0.05 was considered significant.
# Each marker was first analyzed independently.
# The three VKOR SNPs are located within 2 kb distance of one another and are expected to be closely linked.
# T1 sequence (Q9BQB6 whole entry): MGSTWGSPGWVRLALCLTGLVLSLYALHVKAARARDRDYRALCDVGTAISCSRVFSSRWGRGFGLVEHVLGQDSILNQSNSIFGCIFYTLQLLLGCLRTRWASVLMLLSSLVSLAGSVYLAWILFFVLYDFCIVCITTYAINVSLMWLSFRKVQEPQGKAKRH
structure (smiles),measurement,setting,value
CC(=O)CC(c1ccccc1)c1c(O)c2ccccc2oc1=O (stereo not shown) [warfarin],warfarin sensitivity of VKOR activity,VKOR [1]; Sf9 cells transfected with mGC11276 cDNA,warfarin sensitive
same,warfarin sensitivity of VKOR activity,"VKOR [1]; microsomes from Sf9 cells expressing VKOR, 60 μM KO, 30° C., 15 minutes",warfarin-sensitive
same,average warfarin dose,"VKOR [2]; patients heterozygous for vk2581, n=17",35.19±3.73 mg per week
same,average warfarin dose,"VKOR [2]; patients heterozygous for vk3294, n=25",41.68±4.92 mg per week
same,average warfarin dose,"VKOR [2]; patients heterozygous for vk4769, n=19",44.48±4.80 mg per week
same,average warfarin dose,"VKOR [2]; patients homozygous for vk2581, n=15",31.14±6.2 mg per week
same,average warfarin dose,"VKOR [2]; patients homozygous for vk3294, n=22",47.73±2.75 mg per week
same,average warfarin dose,"VKOR [2]; patients homozygous for vk4769, n=12",47.56±3.86 mg per week
same,warfarin dosage,VKOR [2]; patients with haplotype aaBBCC,25.29±3.05
same,average warfarin dose,"VKOR [2]; patients with vk2581 wild type allele, n=26",50.19±3.20 mg per week
same,average warfarin dose,"VKOR [2]; patients with vk4769 SNP wild type, n=27",35.35±4.01 mg per week
same,average warfarin dose,"VKOR [2]; patients with wild-type vk3294 allele, n=11",25.29±3.05 mg per week
same,warfarin dosage,"VKOR [2]; subjects with haplotype AAbbcc, n=7",48.98±3.93
